Literature values in US20190300958A1, “GENETIC POLYMORPHISMS ASSOCIATED WITH VENOUS THROMBOSIS AND STATIN RESPONSE, METHODS OF DETECTION AND USES THEREOF” (Celera Corporation, priority 2010, published 2019).

Columns and labels:
[1] = test system: myocyte cultures; conditions: animal models and myocyte cultures, compared to lipophilic statins
[2] = test system: major cardiovascular events; conditions: study of 17,802 individuals

Row | Structure (SMILES) | myopathic potential [1] | incidence of major cardiovascular events [2]
1 | CC[C@H](C)C(=O)O[C@H]1C[C@H](O)C=C2C=C[C@H](C)[C@H](CC[C@@H](O)C[C@@H](O)CC(=O)O)[C@H]21 [Pravastatin, pravastatin] | low myopathic potential | –
2 | CC(C)c1nc(N(C)S(C)(=O)=O)nc(-c2ccc(F)cc2)c1/C=C/[C@@H](O)C[C@@H](O)CC(=O)O [rosuvastatin] | – | significantly reduced
